From patent publication US20140088034A1, “NITRIC OXIDE/cGMP PATHWAY INHIBITION OF VLA-4 RELATED CELL ADHESION” (STC.UNM, priority 2011, published 2014)
Where two headings read alike, the source gives them in different places.

Columns and labels:
[1] = molecular target: T1, VLA-4 (Homo sapiens, UniProt P05556+P13612); settings: cited from earlier work
[2] = molecular target: T1, VLA-4; assay: Kinetic dissociation rate (koff) analysis of LDV-FITC probe on U937 cells with non-desensitizing FPR mutant; type: cell-based; settings: U937 FPR ΔST, LDV-FITC 25 nM, LDV block 2 μM
Method: The experiment involved sequential addition of BAY 41-2272 (100 μM, guanylyl cyclase activator) or vehicle (control) at the 0 time point, and the fluorescent LDV-FITC probe (4 nM), and CXCL8/IL-8 (20 nM) (arrows). Excess unlabelled competitor LDV (1 μM) added at the end of the experiment to determine the non-specific binding of the probe. This experiment is analogous to the one shown in panel B. One representative experiment of two experiments is shown. Curves are means of two independent determinations calculated on a point-by-point basis (n=2). […] D, Kinetic analysis of binding and dissociation of LDV-FITC probe on U937 cells stably transfected with the non-desensitizing mutant of FPR. Cells were sequentially treated with the LDV-FITC probe (25 nM, near saturation), the Gαi-coupled receptor ligand (fMLFF, 100 nM), BAY 41-2272 (guanylyl cyclase activator, 50 μM) (arrows). At time points indicated by arrows, cells were treated with excess unlabeled LDV containing small molecule (2 μM), and the dissociation of the fluorescent molecule was followed. Dissociation rate constants (koff) were obtained by fitting dissociation curves to a single exponential decay equation (as described in the text). Experiments shown in the different panels were performed using different instruments, and therefore MCF values are not identical. E, Dissociation rate values, obtained in experiments analogous to panel B, summarized as a bar graph showing mean and SEM (n=4). Colors of the dissociation curves in panel D and bars on panel E are matching. The difference between koffs for “resting” and “fMLFF activated”, and between “fMLFF activated” and “fMLFF activated and treated with BAY 41-2272” is statistically significant (P=0.0006<0.05) as calculated by one-way analysis of variance (ANOVA) using GraphPad Prism software. […]
Next, the regions of the ligand-binding curves corresponding to the dissociation of the LDV-FITC probe were fitted to a single exponential decay equation. […] The affinity state induced by guanylyl cyclase activator was quantitatively similar to the resting state before activation. […]

[3] = molecular target: T1, VLA-4; assay: LDV-FITC equilibrium binding to VLA-4 (Kd and calculated receptor occupancy)
Source text: Previously, we described and characterized in detail a model ligand an LDV-FITC containing small molecule ([14, 42-44], and references therein) for the detection of VLA-4 conformational regulation. This VLA-4 specific fluorescent probe was based on a highly specific α4β1-integrin inhibitor BIO1211, which contains the Leu-Asp-Val (LDV) ligand binding motif from the alternatively spliced connecting segment-1 (CS-1) peptide of cellular fibronectin [17, 45]. We established that integrin affinity changes, detected using this probe, vary in parallel with the natural VLA-4 ligand, human VCAM-1 [46]. For real-time detection of rapid integrin conformational changes, cells were treated with LDV-FITC (FIG. 2, first arrow), which was added after establishing a baseline for unstained cells, indicated on FIG. 2A as “autofluorescence”. Next, data were acquired for 2-3 minutes, and cells were activated with fMLFF (high affinity FPR ligand), CXCL12/SDF-1 (CXCR4 ligand), or CXCL8/IL-8 (CXCR2 ligand), for FPR, CXCR4, CXCR2 transfected cells, respectively (FIGS. 2A, B, and C). […] The change in occupancy was detected as a rapid increase in the mean channel fluorescence (MCF). This signal increase was sustained for the case of a non-desensitizing mutant of FRP (FIG. 2A), and reversible for the wild-type receptors (CXCR4, and CXCR2, FIG. 2B,C). Next, cells were treated with the nitric oxide donor, or vehicle (control). Acquisition was re-established, and data were acquired continuously for up to 720-840 s. […] In the absence of receptor desensitization, the effect of nitric oxide was more evident in cells transfected with a non-desensitizing mutant of FPR (vehicle, FIG. 2A). However, the effect of the nitric oxide donor was statistically significant for both wild-type GPCRs. […] To emphasize statistically the difference between control and experimental samples, standard errors of mean are indicated using error bars for every experimental point in FIG. 2B, 2C, 2D, 2E.
Kinetic analysis of the binding and dissociation of the LDV-FITC probe was described previously. […]

[4] = 4 nM probe, calculated based on the one site binding equation

T1 sequence (P13612 34-1032): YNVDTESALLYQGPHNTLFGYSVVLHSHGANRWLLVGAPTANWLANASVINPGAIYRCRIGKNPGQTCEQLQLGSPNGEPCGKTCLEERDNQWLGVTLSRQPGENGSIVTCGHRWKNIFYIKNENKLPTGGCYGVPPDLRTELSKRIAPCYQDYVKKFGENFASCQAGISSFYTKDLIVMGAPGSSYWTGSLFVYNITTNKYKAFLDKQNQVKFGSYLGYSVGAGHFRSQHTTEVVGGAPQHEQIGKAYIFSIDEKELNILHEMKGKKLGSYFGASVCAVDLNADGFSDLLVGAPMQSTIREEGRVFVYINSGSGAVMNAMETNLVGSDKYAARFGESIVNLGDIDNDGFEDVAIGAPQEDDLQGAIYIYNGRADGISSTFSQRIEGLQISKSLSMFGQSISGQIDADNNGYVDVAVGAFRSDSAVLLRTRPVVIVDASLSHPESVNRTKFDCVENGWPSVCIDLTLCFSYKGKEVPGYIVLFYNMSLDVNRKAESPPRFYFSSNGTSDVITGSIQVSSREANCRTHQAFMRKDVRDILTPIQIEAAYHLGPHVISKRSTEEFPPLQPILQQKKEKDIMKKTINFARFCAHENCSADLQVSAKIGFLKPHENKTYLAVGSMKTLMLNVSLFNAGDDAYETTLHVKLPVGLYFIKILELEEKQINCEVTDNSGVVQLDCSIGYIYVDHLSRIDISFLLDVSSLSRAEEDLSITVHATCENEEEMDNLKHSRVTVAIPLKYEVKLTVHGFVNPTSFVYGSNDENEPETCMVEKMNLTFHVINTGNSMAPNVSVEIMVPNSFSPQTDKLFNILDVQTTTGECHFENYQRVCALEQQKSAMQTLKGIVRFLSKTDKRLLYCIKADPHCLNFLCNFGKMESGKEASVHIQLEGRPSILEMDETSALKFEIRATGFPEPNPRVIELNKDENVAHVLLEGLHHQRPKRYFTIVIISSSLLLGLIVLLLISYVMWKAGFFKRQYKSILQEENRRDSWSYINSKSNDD
T1 sequence (P05556 21-798): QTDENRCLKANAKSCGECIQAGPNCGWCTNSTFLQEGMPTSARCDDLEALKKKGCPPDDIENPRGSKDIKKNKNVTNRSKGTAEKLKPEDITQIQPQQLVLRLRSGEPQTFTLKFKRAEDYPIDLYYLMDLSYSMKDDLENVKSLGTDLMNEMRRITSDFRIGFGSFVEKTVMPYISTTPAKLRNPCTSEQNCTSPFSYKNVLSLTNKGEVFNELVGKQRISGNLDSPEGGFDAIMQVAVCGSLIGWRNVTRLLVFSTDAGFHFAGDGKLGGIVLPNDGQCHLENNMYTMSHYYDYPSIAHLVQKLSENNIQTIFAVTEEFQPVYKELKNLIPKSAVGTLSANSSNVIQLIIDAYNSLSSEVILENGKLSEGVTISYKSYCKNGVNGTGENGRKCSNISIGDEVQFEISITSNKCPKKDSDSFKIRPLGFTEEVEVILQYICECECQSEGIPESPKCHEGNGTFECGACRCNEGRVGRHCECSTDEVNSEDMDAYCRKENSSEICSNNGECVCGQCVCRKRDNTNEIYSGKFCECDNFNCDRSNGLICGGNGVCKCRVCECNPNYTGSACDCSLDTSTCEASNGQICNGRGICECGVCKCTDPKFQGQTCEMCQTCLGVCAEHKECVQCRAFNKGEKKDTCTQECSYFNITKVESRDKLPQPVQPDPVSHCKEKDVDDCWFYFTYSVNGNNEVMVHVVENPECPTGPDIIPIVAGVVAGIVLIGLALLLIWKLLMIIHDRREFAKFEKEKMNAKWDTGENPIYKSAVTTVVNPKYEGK

4-((N′-2-methylphenyl)ureido)-phenylacetyl-L-leucyl-L-aspartyl-L-valyl-L-prolyl-L-alanyl-L-alanyl-L-lysine-FITC [LDV-FITC]
Kd ([1]; physiologically activated VLA-4, high affinity state, read-out: Kd for physiologically activated VLA-4 (high affinity state)): 1 to 2 nM | Kd ([1]; resting VLA-4, low affinity state, read-out: Kd for binding to resting VLA-4 (low affinity state)): ~12 nM | dissociation rate constant koff of LDV-FITC, resting cells ([2]; at rest): ~0.04 ± 0.001 s⁻¹ | dissociation rate constant koff of LDV-FITC after cell activation by fMLFF ([2]; fMLFF 100 nM): ~0.018 ± 0.0001 s⁻¹ | receptor occupancy, high affinity state [3, 4]: 70-80% | receptor occupancy, low affinity state [3, 4]: ~25% | sites occupied before activation ([3]; 25 nM probe, low affinity state): ~70%
